Experiment: xn = mol fraction of the nth substance listed

CC[n+]1ccccc1.N#C[N-]C#N + CCO
100 kPa
Conditions	viscosity [mPa·s]
288.15 K, x2 = 0	25.9
288.15 K, x2 = 0.1008	21.3
293.15 K, x2 = 0.1008	17.9
298.15 K, x2 = 0	18.9
298.15 K, x2 = 0.1974	12.4
298.15 K, x2 = 0.3008	10.3
298.15 K, x2 = 0.7999	2.54
303.15 K, x2 = 0.9011	1.69
308.15 K, x2 = 0.5058	5.17
313.15 K, x2 = 0.3994	5.99
313.15 K, x2 = 0.5058	4.69
313.15 K, x2 = 0.5994	3.74
313.15 K, x2 = 0.6996	2.92
318.15 K, x2 = 0.1008	8.97
318.15 K, x2 = 0.3994	5.44

CCC(C)O (stereo not drawn) + CCOS(=O)(=O)[O-].CC[n+]1ccn(C)c1
Conditions	viscosity [mPa·s]
308.15 K, 101 kPa, x2 = 0	2

CC(=O)[O-].CCCCCCCCCCCCCC[P+](CCCCCC)(CCCCCC)CCCCCC + COCCOCCOCCOCCOC
100 kPa
Conditions	viscosity [mPa·s]
278.15 K, x2 = 0.207	651
278.15 K, x2 = 0.499	176
283.15 K, x2 = 0.207	462
288.15 K, x2 = 0.103	549
288.15 K, x2 = 0.4	145
298.15 K, x2 = 0.103	287
298.15 K, x2 = 0.4	88
313.15 K, x2 = 0.103	130

COCCOCCOC + CCCC[n+]1ccn(C)c1.F[B-](F)(F)F
100 kPa
Conditions	viscosity [mPa·s]
283.15 K, x2 = 0.05926	2.33
283.15 K, x2 = 0.1017	2.93
283.15 K, x2 = 0.193	4.788
283.15 K, x2 = 0.2925	8.04
283.15 K, x2 = 0.3989	14.34
283.15 K, x2 = 0.4972	23.78
283.15 K, x2 = 0.5761	35.48
283.15 K, x2 = 0.6977	62.63
283.15 K, x2 = 0.7915	93.5
283.15 K, x2 = 0.8978	151.1
283.15 K, x2 = 0.9426	187.3
293.15 K, x2 = 0.05427	1.895
293.15 K, x2 = 0.1026	2.374
293.15 K, x2 = 0.195	3.051
293.15 K, x2 = 0.2987	6.258
293.15 K, x2 = 0.3891	9.33
293.15 K, x2 = 0.4902	16.39
293.15 K, x2 = 0.5631	22.79
293.15 K, x2 = 0.6762	35.31
293.15 K, x2 = 0.7902	55.27
293.15 K, x2 = 0.8969	86
293.15 K, x2 = 0.9436	103.9
303.15 K, x2 = 0.04967	1.214
303.15 K, x2 = 0.05867	1.133
303.15 K, x2 = 0.1027	1.519
303.15 K, x2 = 0.1925	2.927
303.15 K, x2 = 0.2857	4.426
303.15 K, x2 = 0.4003	7.339
303.15 K, x2 = 0.4952	10.86
303.15 K, x2 = 0.5755	15.38
303.15 K, x2 = 0.6993	24.97
303.15 K, x2 = 0.7943	35.15
303.15 K, x2 = 0.8999	51.8
303.15 K, x2 = 0.9387	59.7
313.15 K, x2 = 0.08858	1.238
313.15 K, x2 = 0.168	1.472
313.15 K, x2 = 0.2583	2.155
313.15 K, x2 = 0.3563	3.486
313.15 K, x2 = 0.4578	5.566
313.15 K, x2 = 0.5473	8.36
313.15 K, x2 = 0.6683	12.94
313.15 K, x2 = 0.7655	18.99
313.15 K, x2 = 0.8894	28.19
313.15 K, x2 = 0.9307	31.25

CC[n+]1ccn(CCOC)c1.O=S(=O)([N-]S(=O)(=O)C(F)(F)F)C(F)(F)F + CCO
viscosity [mPa·s], 100 kPa
Conditions	x1 = 0.1	x1 = 0.1947	x1 = 0.2995	x1 = 0.4	x1 = 0.5002	x1 = 0.6001	x1 = 0.6999	x1 = 0.8	x1 = 0.9	x1 = 1
288.15 K	2.988	5.32	8.21	12.02	17.17	22.86	29.81	37.73	47.39	54.62
293.15 K	2.648	4.62	7.03	10.16	14.5	19.09	24.64	30.74	38.01	43.63
298.15 K	2.361	4.046	6.09	8.7	12.31	16.25	20.6	25.4	31.15	35.49
303.15 K	2.117	3.591	5.32	7.53	10.53	13.87	17.61	21.35	25.87	29.33
308.15 K	1.907	3.195	4.688	6.58	9.1	11.89	15.14	18.22	21.81	24.58
313.15 K	1.725	2.861	4.162	5.799	7.91	10.27	13.06	15.8	18.68	20.86
318.15 K	1.568	2.576	3.743	5.15	6.95	8.97	11.36	13.73	16.27	18.03

Source: the CheMixHub ionic liquid set
